For the assay, the target named is T1, FLuc-C-HiBiT (Photinus pyralis, UniProt P08659).
T1 construct: firefly luciferase with C-terminal HiBiT tag, E. coli expressed
The experiment in a line: biochemical. The following applies: enzyme activity, 10 uM ATP; read-out: IC50 or SDR50 (mM) / FLuc E.

T1 sequence (P08659 whole entry, looked up): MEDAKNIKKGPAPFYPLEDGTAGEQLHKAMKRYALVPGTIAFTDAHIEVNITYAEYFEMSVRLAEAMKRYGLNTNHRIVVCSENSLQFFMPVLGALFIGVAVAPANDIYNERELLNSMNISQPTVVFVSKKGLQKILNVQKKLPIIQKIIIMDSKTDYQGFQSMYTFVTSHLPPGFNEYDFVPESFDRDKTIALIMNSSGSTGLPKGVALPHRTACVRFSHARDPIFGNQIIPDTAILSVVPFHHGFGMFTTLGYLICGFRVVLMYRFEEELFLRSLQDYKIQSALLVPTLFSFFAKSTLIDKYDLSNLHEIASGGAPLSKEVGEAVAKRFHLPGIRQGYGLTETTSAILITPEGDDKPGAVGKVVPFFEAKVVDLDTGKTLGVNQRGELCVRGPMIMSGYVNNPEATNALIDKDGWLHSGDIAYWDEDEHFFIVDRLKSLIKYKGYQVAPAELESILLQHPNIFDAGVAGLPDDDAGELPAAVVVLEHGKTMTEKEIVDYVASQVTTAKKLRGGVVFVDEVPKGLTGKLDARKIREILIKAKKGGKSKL

Regarding `COc1ccc(-c2cc(N3CCCC(NC(=O)c4ccncc4)C3)[nH]n2)cc1` (stereo not shown) [NCGC00437632-01], the IC50 turned out to be 0.0111 mM.
Then `COc1ccc(-c2noc(-c3ccc(C)cc3Cl)n2)cc1OC` [NCGC00102273-01], with 0.00124 mM.
Then `O=C(O)c1ccc(-c2noc(-c3ccc(Cl)cc3)n2)cc1` [NCGC00168101-01], with 0.000785 mM; and `CCC(CC)C(=O)Nc1cccc(-c2nc3ccccc3s2)c1` [NCGC00119163-01], with 0.0157 mM; and `CCc1ccc(C(=O)Nc2ccc3c(N4CCOCC4)ncnc3c2)cc1` [NCGC00425539-01], with 0.00785 mM.
With `COc1cccc(OCc2nc3ccccc3n2Cc2ccccc2)c1` [NCGC00116123-01] the figure was over 0.03 mM.
On to `O=C(O)C1CCc2nc(N3CCN(C(=O)C4CCC4)CC3)sc2C1` (stereo not shown) [NCGC00432759-01], for which the IC50 was found to be 0.00881 mM.
Then `Cc1ccc(-c2cc3c(=O)n(CCNC(=O)c4ccccc4F)ccn3n2)c(C)c1` [NCGC00456982-01], with 0.007 mM; and `COc1ccc(-c2nc(C)c(CCNC(=O)c3cccs3)s2)cc1` [NCGC00135787-01], with 0.0111 mM; and `Cc1ncc(CC(=O)NCc2ccc3[nH]c(-c4ccccc4F)c(C)c3c2)c(=O)[nH]1` [NCGC00436691-01], with 0.0124 mM.
With `Clc1ccc(-c2nc(-c3ccccn3)no2)cc1Cl` [NCGC00075852-01] the figure was 0.00556 mM; with `CN1CC(=O)N(C2CCCC2)Cc2c1ncnc2N1CCOCC1` [NCGC00480226-01], over 0.03 mM.
In the case of `O=C(Nc1ccc(-c2nc3ccccc3s2)c(O)c1)c1ccc(Br)cc1` [NCGC00098662-01], the IC50 is over 0.03 mM.
On to `O=C(Nc1cnc(-c2ccccc2)nc1)C1CCCCC1` [NCGC00432861-01], for which the IC50 stood at 0.00197 mM.
Then `COc1cccc2cc(-c3nnc(-c4ccc(Cl)cc4)o3)c(=O)oc12` [NCGC00098120-01], with 0.00351 mM; and `CCCCOc1ccc(C(=O)Nc2ccc(-c3nc4ccccc4s3)cc2C)cc1` [NCGC00102367-01], with over 0.03 mM.
On to `OC1(CN2CCCN(c3nc4ccccc4s3)CC2)CNCCOC1` (stereo not shown) [NCGC00443145-01], for which the IC50 is over 0.03 mM.
Then `CCOC(=O)N1CCc2c(sc(NCc3cccc(F)c3)c2C(=O)Nc2ccc(OC)cc2OC)C1` [NCGC00140797-01], with 0.00248 mM.
Then `Cc1ccc(C2Cn3nnc(C(=O)N4CCC(C(=O)NCCc5ccccc5)CC4)c3CO2)cc1` (stereo not shown) [NCGC00449535-01], with 0.0111 mM; and `O=C(NC1CCCC1)N1c2ccccc2CC1c1noc(C2CCOCC2)n1` (stereo not shown) [NCGC00471510-01], with 0.0111 mM.
In the case of `Nc1ncnc2c1ncn2[C@H]1O[C@H](CO)[C@@H](O)[C@@H]1O` [NCGC00262556-01], the IC50 is over 0.03 mM.
Then `OCc1cn(CC2CCN(c3ncnc4[nH]cnc34)CC2)nn1` [NCGC00425096-01], with over 0.03 mM; and `COc1cccc(CC(=O)NCCn2ccn3nc(-c4ccc(C)cc4C)cc3c2=O)c1` [NCGC00456960-01], with 0.00881 mM.
For the molecule `C[C@H](C(=O)N1CCOCC1)C1CC[C@@]2(C)Cc3sc(-c4ccccc4)nc3[C@@H](C)[C@@H]2[C@H]1O` (stereo partly shown) [NCGC00421021-01], the IC50 was found to be 0.00351 mM.
Then `O=C(COc1ccc(Cl)cc1)Nc1ccc(-c2nc3cc(Cl)ccc3o2)c(O)c1` [NCGC00099397-01], with 0.007 mM; and `Oc1c(Br)cc(Br)cc1-c1nc2ccccc2s1` [NCGC00098096-01], with 0.0124 mM.
With `CCCOc1cccc(C(=O)Nc2ccc(-c3nc4ccccc4s3)c(Cl)c2)c1` [NCGC00102006-02], the IC50 is 0.0157 mM.
With `Cc1ccc(-n2ncc3c(NC4CCCCC4)ncnc32)cc1C` [NCGC00139081-01] the figure was 0.00176 mM; with `Cc1ccc(-n2ncc3c(N4CCCCC4)ncnc32)cc1Cl` [NCGC00139209-01], 0.000785 mM.
Turning to `O=C(Nc1cccc(-c2ccc(N3CCCC3)nn2)c1)c1c(F)cccc1F` [NCGC00427548-01], the IC50 came to 0.00881 mM.
With `CC[S+](=O)([O-])c1ccccc1C(=O)Nc1ccc(-c2nc3ccccc3s2)cc1` [NCGC00134164-01] the figure was over 0.03 mM.
